Data published in patent publication US10640545B2 (THE GOVERNORS OF THE UNIVERSITY OF ALBERTA, priority 2017, dated 2020).
Where a SMILES comes first, the peptide text is derived from it. [ ]: non-standard residue; d: D form. Phe(4-Br) = N[C@@H](Cc1ccc(Br)cc1)C(=O)O; NMeL = CN[C@@H](CC(C)C)C(=O)O; Nle = CCCC[C@H](N)C(=O)O; Aib = CC(C)(N)C(=O)O

Legend:
[1] = molecular target: KLKB1 (Homo sapiens, UniProt P03952); test: Kinetic parameters for KLKB1 cleavage; assay type: biochemical; design: purchased Novoprotein; details: for Km / kcat: enzyme KLKB1
Chain of KLKB1 (P03952 20-638): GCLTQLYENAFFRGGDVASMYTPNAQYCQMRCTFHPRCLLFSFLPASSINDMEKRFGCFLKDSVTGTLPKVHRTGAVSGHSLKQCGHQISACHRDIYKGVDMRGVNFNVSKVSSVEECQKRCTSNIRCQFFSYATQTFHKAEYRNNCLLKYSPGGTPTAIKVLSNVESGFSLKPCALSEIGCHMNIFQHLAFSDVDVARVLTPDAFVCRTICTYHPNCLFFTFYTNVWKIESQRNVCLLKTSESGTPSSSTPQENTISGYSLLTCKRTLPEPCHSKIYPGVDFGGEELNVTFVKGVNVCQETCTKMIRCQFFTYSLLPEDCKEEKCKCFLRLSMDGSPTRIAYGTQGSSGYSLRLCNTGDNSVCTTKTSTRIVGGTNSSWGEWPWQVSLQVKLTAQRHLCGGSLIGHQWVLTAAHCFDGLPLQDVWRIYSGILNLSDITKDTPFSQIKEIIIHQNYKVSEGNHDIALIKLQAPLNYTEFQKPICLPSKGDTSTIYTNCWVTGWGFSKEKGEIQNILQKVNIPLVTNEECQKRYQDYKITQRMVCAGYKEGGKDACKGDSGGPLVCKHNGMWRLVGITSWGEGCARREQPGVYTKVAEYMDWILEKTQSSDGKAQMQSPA

[2] = molecular target: T1, wild-type rat apelin receptor (Rattus norvegicus, UniProt Q9JHG3); test: Radioligand binding, displacement of [125I]-pyr-1-apelin-13 on CHO cell membranes
T1 construct: expressed in transfected cells
T1 sequence (Q9JHG3 1-377): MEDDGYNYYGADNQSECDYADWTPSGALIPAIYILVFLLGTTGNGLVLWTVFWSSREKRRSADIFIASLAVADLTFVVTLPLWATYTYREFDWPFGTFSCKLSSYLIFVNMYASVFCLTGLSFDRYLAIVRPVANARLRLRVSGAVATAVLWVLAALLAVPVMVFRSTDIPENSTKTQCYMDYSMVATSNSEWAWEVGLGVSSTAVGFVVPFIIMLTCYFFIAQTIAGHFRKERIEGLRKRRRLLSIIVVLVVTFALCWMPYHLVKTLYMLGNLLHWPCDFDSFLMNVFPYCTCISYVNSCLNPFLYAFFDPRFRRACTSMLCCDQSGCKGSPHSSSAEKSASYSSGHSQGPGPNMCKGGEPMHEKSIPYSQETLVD
Method in brief: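 Membranes (1 μg) from CHO cells stably expressing rat apelin receptor-EGFP incubated 3 h at 20 °C with 0.2 nM [125I]-pyr-1-apelin-13 and varying peptide concentrations in 50 mM HEPES, 5 mM MgCl2, 1% BSA, pH 7.5. Bound radioactivity measured by filtration and gamma counting.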

[3] = test system: isolated rat hearts; test: Langendorff isolated heart, ischemia-reperfusion injury; details: ex vivo heart, 30 min ischemia
Procedure: The ex vivo heart was assessed for a variety of parameters (heart rate (HR); left ventricle developed pressure (LVDP); maximum derivative of change in systolic pressure over time (max dP/dt); minimum derivative of change in diastolic pressure over time (min dP/dt); and rate-pressure product (RPP)) indicative of general heart function and performance (FIG. 11).
Langendorff heart perfusion and ischemia-reperfusion injury were prepared and cardiac function was measured. Mice were heparinized and anaesthetized with 1.5-2% isoflurane inhalation. The heart was excised, mounted on a Langendorff system, and perfused at a consistent pressure of 80 mmHg with modified Krebs-Henseleit solution (116 mM NaCl, 3.2 mM KCl, 2.0 mM CaCl2), 1.2 mM MgSO4, 25 mM NaHCO3, 1.2 mM KH2PO4, 11 mM glucose, 0.5 mM EDTA and 2 mM pyruvate), which was kept at 37° C. and continuously oxygenated with 95% O2 and 5% CO2 which maintained the perfusion buffer at pH 7.4. After stabilization and 10 min baseline recording, global ischemia was induced for 30 min followed by 40 min of reperfusion. Apelin 17 (2) or apelin peptides (11, 17, 18, or 19) were given at the start of reperfusion for 10 min at a concentration of 1 pM. Left ventricular functions were obtained continuously by PowerLab system (ADInstruments, Australia). Data was reported as mean value of every 5 min. Left ventricular functions were reported as: Left Ventricular Developed Pressure (LVDP); Heart rate (HR); maximum derivative of change in systolic pressure over time (max dP/dt); minimum derivative of change in diastolic pressure over time (min dP/dt); and Rate Pressure Product (RPP).

Km [1] | kcat [1] | Ki ([2]; displacement of [125I]-pyr-1-apelin-13 (0.2 nM), CHO membranes, rat apelin receptor-EGFP, means ± SE, read-out: Affinity Ki) | degradation by KLKB1 (in words) ([1]; KLKB1) | receptor binding affinity (in words) ([2]; rat apelin receptor) | Structure (SMILES) | ability to rescue the heart from ischemic reperfusion injury ([3]; peptide at start of reperfusion for 10 min at 1 pM) | max/min dP/dt, LVDP and RPP compared to native isoform 2 ([3]; reperfusion)
97 ± 21 µM | 13.7 ± 1.3 s⁻¹ | 0.05 nM | – | – | CSCC[C@H](NC(=O)[C@@H]1CCCN1C(=O)CNC(=O)[C@H](CCCCN)NC(=O)[C@H](Cc1cnc[nH]1)NC(=O)[C@H](CO)NC(=O)[C@H](CC(C)C)NC(=O)[C@H](CCCNC(=N)N)NC(=O)[C@@H]1CCCN1C(=O)[C@H](CCCNC(=N)N)NC(=O)[C@H](CCC(N)=O)NC(=O)[C@H](CCCNC(=N)N)NC(=O)[C@H](CCCNC(=N)N)NC(=O)[C@H](Cc1ccccc1)NC(=O)[C@@H](N)CCCCN)C(=O)N1CCC[C@H]1C(=O)N[C@@H](Cc1ccccc1)C(=O)O [Peptide 2, reference compound] | – | –
245 ± 75 µM | 16.5 ± 2.1 s⁻¹ | – | degraded quickly | sub-nanomolar receptor affinities | CCCC[C@H](NC(=O)[C@@H]1CCCN1C(=O)CNC(=O)[C@H](CCCCN)NC(=O)[C@H](Cc1c[nH]cn1)NC(=O)[C@H](CO)NC(=O)[C@H](CC(C)C)N(C)C(=O)[C@H](CCCNC(=N)N)NC(=O)[C@@H]1CCCN1C(=O)[C@H](CCCNC(=N)N)NC(=O)[C@H](CCC(N)=O)NC(=O)[C@H](CCCNC(=N)N)NC(=O)[C@H](CCCNC(=N)N)NC(=O)[C@H](Cc1ccccc1)NC(=O)[C@@H](N)CCCCN)C(=O)NC(C)(C)C(=O)N[C@@H](Cc1ccc(Br)cc1)C(=O)O [Peptide 11] (H-KFRRQRPR[NMeL]SHKGP[Nle][Aib][Phe(4-Br)]-OH; C-terminus assumed) | equivalent ability to rescue the heart from ischemic reperfusion injury compared to native isoform 2 | slight improvement over the native isoform
